Measurements as given in patent US12465613B2, “Pharmaceutical composition for use in the prophylactic and/or therapeutic treatment of L-DOPA-induced dyskinesia” (UNIVERSIDADE DE SANTIAGO DE COMPOSTELA, priority 2019, dated 2025).
“Also recorded” adds a separate entry of the source.

Legend:
Type in all cases: in vivo, rats of the Sprague-Dawley strain
[1] = system: rats with unilateral lesion with 6-OHDA; test: Rotational behavior induced by L-DOPA (Example 3); settings: different doses of fasudil (10, 30, 40 mg/kg)
[2] = system: rats injected with 6-OHDA, dyskinesias induced by L-DOPA; test: Abnormal involuntary movements (AIMs) when fasudil is co-administered from before and during chronic L-DOPA treatment (Example 2)
[3] = system: rats with unilateral lesion with 6-OHDA, established dyskinesias induced by L-DOPA; test: AIMs in animals with already established dyskinesias (L-DOPA 3 weeks, then L-DOPA and fasudil; Example 4)
ROCK = ROCK expression and activity in striatum and substantia nigra of dyskinetic animals (Western blot, real-time PCR; Example 1)
RhoA = RhoA expression in striatum and substantia nigra of dyskinetic animals (Western blot, real-time PCR; Example 1)
[4] = fasudil 10 mg/kg/day i.p., L-DOPA 6 mg/kg, 3 weeks, relative to L-DOPA only
[5] = fasudil 30 mg/kg i.p., chronic L-DOPA
[6] = L-DOPA 6 mg/kg and 12 mg/kg, normalized to 6-OHDA animals treated with saline, p<0.05
[7] = daily L-DOPA 6 or 12 mg/kg, 3-4 weeks, increase greater with the higher dose

O=S(=O)(c1cccc2cnccc12)N1CCCNCC1 [fasudil]
rotations induced by L-DOPA (rotational behavior) [1]: unaffected; also recorded: no differences were observed
abnormal involuntary movements (AIMs), total score and separate components (extremity, axial, orolingual) ([2]; FIG. 2, fasudil 10 mg/kg and 30-40 mg, chronic L-DOPA 23 and 32 days, p<0.05): statistically significant reduction
reduction in dyskinesia in conditions of severe dyskinesia ([2]; L-DOPA dose increased to 24 mg/kg at the end of the treatment, fasudil dose not stated): approximately 50%
axial reduction in dyskinesias [2, 4]: ~35%
orolingual reduction in dyskinesias [2, 4]: ~30%
reduction in dyskinesias in the extremities ([2]; fasudil 10 mg/kg/day i.p., from 5 days before and 30 min before each L-DOPA 6 mg/kg, 3 weeks, relative to L-DOPA only): ~25%
axial reduction in dyskinesias [2, 5]: 60%
extremity reduction in dyskinesias [2, 5]: 60%
orolingual reduction in dyskinesias [2, 5]: 70%
reduction in dyskinesia ([2]; fasudil 40 mg/kg i.p., chronic L-DOPA): 70%
effect on established dyskinetic movements ([3]; FIG. 4B, fasudil 30 and 40 mg/kg, even with L-DOPA 24 mg/kg, p<0.05): significant reduction
reduction in established dyskinesias, severe dyskinesia ([3]; L-DOPA increased to 24 mg/kg, maintained up to the end of the treatment): approximately 50%
effect on established dyskinetic movements ([3]; fasudil 10 mg/kg/day, up to 7 days of treatment, after 3 weeks of L-DOPA): did not have any effect; also recorded: no improvement
day of treatment from which the reduction in established dyskinesias was seen ([3]; fasudil 40 mg/kg/day): third
reduction in established dyskinesias ([3]; fasudil 40 mg/kg/day, after 3 weeks of L-DOPA): about 45%
dyskinesias reduced to (already dyskinetic animals) ([3]; fasudil 40 mg/kg, animals treated with L-DOPA for 3-4 weeks, summary statement): ~50%

N[C@@H](Cc1ccc(O)c(O)c1)C(=O)O [L-DOPA]
ROCK activity in the substantia nigra (ROCK; L-DOPA 6 mg/kg and 12 mg/kg, normalized to 6-OHDA animals treated with saline): significant increase
ROCK protein expression in the substantia nigra (ROCK; [6]): significant increase
ROCK protein expression in the striatum (ROCK; L-DOPA 6 and 12 mg/kg): only significant with the high dose
levels of the ROCK protein in dyskinetic animals (ROCK; [7]): significant increase
RhoA protein expression in the substantia nigra (RhoA; [6]): significant increase
RhoA protein expression in the striatum (RhoA; L-DOPA 6 and 12 mg/kg): only significant with the high dose
levels of the RhoA protein in dyskinetic animals (RhoA; [7]): significant increase
